Patent US20230279233A1, “ATROROSINS AS FOOD COLORS” (Chromologics ApS, priority 2020, published 2023)
Values joined by “and” are separate entries in the source; they are usually repeats but may differ in a detail not shown here. Equal values may be shown once. “Also recorded” adds a separate entry of the source. Read-outs that look alike come from different tables or passages of the source.

How the values were obtained:
[1] = pH stability in McIlvaine buffer pH 2.2-7.2, absorption maxima by spectrophotometer; type: physicochemical
TA 98 = assay: mini-Ames (AMES MPF) genotoxicity; type: cell-based; conditions: for genotoxic effects (in words): mini-Ames study
Description: Resulting powder from example 2 was sent to Cyprotox to asses for genotoxicity in a mini-Ames experiment. 43.2 mg of atrorosin was sent to Cyprotox. Mini-Ames test were conducted under the guidelines of OECD.
In comparison to the atrorosin tested above, similar 46.4 mg of carminic acid was also sent to Cyprotox to assess for genotoxicity.

DPPH antioxidant assay = conditions: 0 μM to 45 μM, 30 minutes, absorbance 517 nm, compared to Trolox (FIG. 3)
Description: To assess antioxidant activity of Atrorosin-E, the common DPPH (2,2 Diphenyl-1-picrylhydrazyl) assay was used. A working solution of DPPH was made with a concentration of 220 μg/ml in ethanol. 1 g of the resulting powder from Example 2 was used to make a dilution row of atrorosin-E from 0 μM to 45 μM. […] of each sample was reacted to 1000 μL of DPPH for 30 minutes in the dark before absorbance was measured.
Antioxidant activity was determined by calculating the inhibition of emission of DPPH by measuring absorbance of DPPH at 517 nm before and after incubation with reactants. As Atrorosins have background emission at 517, the before sample was measured seconds after addition of atrorosins rather than before. Antioxidant activity of Atrorosin-E was compared to the standard Trolox (FIG. 3).

[2] = Temperature stability at 60° C. and 80° C. in McIlvaine buffer pH 5, absorption maxima
Description: Buffer and atrorosin was mixed for 5 minutes before the solutions were subjected heating in an incubator at 60° C. and 80° C. to colorimetric analysis using spectrophotometer. The absorption maxima at 425 nm and 490 nm were determined in a microtiter plate with a 0.45 cm cell length with buffer as blank. In comparison to the data in Table 3, the absorption spectrum of betanin is determined as above. […] In comparison to Table 5, the absorption spectrum of betanin is determined as above.

[3] = Pharmacokinetic profile in rats, IV and PO; type: in vivo; conditions: for Cmax: read-out: C0/Cmax
Description: Resulting powder from example 2 was sent to Evotec to asses for the pharmacokinetic profile of atrorosin. 6 rats were used, 3 rats for IV injection of atrorosin and 3 rats for PO. The rats were injected or given through mouth gauge 2 mg/kg, and blood samples were taken at regular intervals.
In comparison to example 10, similar carminic acid was also sent to Evotec to assess the pharmacokinetic profile.

[4] = rat, IV 2 mg/kg, individual rats 1-3, 2 mg/kg
[5] = rat, PO 2 mg/kg, individual rats 4-6, 2 mg/kg

CCCCCCCC(=O)C1=C2C=C3C=C(/C=C\C(=O)O)N([C@@H](CCC(=O)O)C(=O)O)C=C3C(=O)C2(C)OC1=O (stereo partly shown) [Atrorosin-E]
pH stability (in words) ([1]; compared with carminic acid, Tables 1 and 2): superior pH stability at low pH | Absorption at 425 nm ([1]; pH 2.2): 0.63 | Absorption at 490 nm ([1]; pH 2.2): 3.30 | Absorption at 425 nm ([1]; pH 3.5): 0.73 | Absorption at 490 nm ([1]; pH 3.5): 3.92 | Absorption at 425 nm ([1]; pH 5): 0.75 | Absorption at 490 nm ([1]; pH 5): 3.94 | Absorption at 425 nm ([1]; pH 7.2): 0.73 | Absorption at 490 nm ([1]; pH 7.2): 3.91 | Fold increase (over baseline) (TA 98; TA 98 +S9, 62.5 μg/ml): 0.55 | mean # pos. Wells (TA 98; TA 98 +S9, 62.5 μg/ml): 1.33 | Fold increase (over baseline) (TA 98; TA 98 +S9, 125 μg/ml): 0.28 | mean # pos. Wells (TA 98; TA 98 +S9, 125 μg/ml): 0.67 | Fold increase (over baseline) (TA 98; TA 98 +S9, 250 μg/ml): 0.42 | mean # pos. Wells (TA 98; TA 98 +S9, 250 μg/ml): 1.00 | Fold increase (over baseline) (TA 98; TA 98 +S9, 500 μg/ml): 0.28 | mean # pos. Wells (TA 98; TA 98 +S9, 500 μg/ml): 0.67 | Fold increase (over baseline) (TA 98; TA 98 +S9, 1000 μg/ml): 0.69 | mean # pos. Wells (TA 98; TA 98 +S9, 1000 μg/ml): 1.67 | Fold increase (over baseline) (TA 98; TA 98 +S9, 2000 μg/ml): 0.00 | mean # pos. Wells (TA 98; TA 98 +S9, 2000 μg/ml): 0.00 | Fold increase (over baseline) (TA 98; TA 98 −S9, 62.5 μg/ml): 0.00 | mean # pos. Wells (TA 98; TA 98 −S9, 62.5 μg/ml): 0.00 | Fold increase (over baseline) (TA 98; TA 98 −S9, 125 μg/ml): 0.76 | mean # pos. Wells (TA 98; TA 98 −S9, 125 μg/ml): 1.00 | Fold increase (over baseline) (TA 98; TA 98 −S9, 250 μg/ml): 1.52 | mean # pos. Wells (TA 98; TA 98 −S9, 250 μg/ml): 2.00 | Fold increase (over baseline) (TA 98; TA 98 −S9, 500 μg/ml): 0.76 | mean # pos. Wells (TA 98; TA 98 −S9, 500 μg/ml): 1.00 | Fold increase (over baseline) (TA 98; TA 98 −S9, 1000 μg/ml): 0.51 | mean # pos. Wells (TA 98; TA 98 −S9, 1000 μg/ml): 0.67 | Fold increase (over baseline) (TA 98; TA 98 −S9, 2000 μg/ml): 0.51 | mean # pos. Wells (TA 98; TA 98 −S9, 2000 μg/ml): 0.67 | genotoxic effects (in words) (TA 98): do not exert any genotoxic effects | genotoxic effects (in words) (TA 98; listed as atrorosin): not genotoxic; also recorded: neither genotoxic | Antioxidant activity (inhibition of DPPH, in words) (DPPH antioxidant assay): far more potent antioxidant than the control antioxidant Trolox | Absorption at 425 nm ([2]; 60° C., pH 5, 1 H): 2.01 | Absorption at 490 nm ([2]; 60° C., pH 5, 1 H): 3.53 | Absorption at 425 nm ([2]; 60° C., pH 5, 2 H): 1.98 | Absorption at 490 nm ([2]; 60° C., pH 5, 2 H): 3.42 | Absorption at 425 nm ([2]; 60° C., pH 5, 3 H): 1.78 | Absorption at 490 nm ([2]; 60° C., pH 5, 3 H): 3.11 | Absorption at 425 nm ([2]; 60° C., pH 5, 24 H): 0.78 | Absorption at 490 nm ([2]; 60° C., pH 5, 24 H): 1.31 | Absorption at 425 nm ([2]; 60° C., pH 5, T0: Start): 2.03 | Absorption at 490 nm ([2]; 60° C., pH 5, T0: Start): 3.55 | Absorption at 425 nm ([2]; 80° C., pH 5, 1 H): 1.66 | Absorption at 490 nm ([2]; 80° C., pH 5, 1 H): 2.86 | Absorption at 425 nm ([2]; 80° C., pH 5, 2 H): 1.23 | Absorption at 490 nm ([2]; 80° C., pH 5, 2 H): 2.13 | Absorption at 425 nm ([2]; 80° C., pH 5, 3 H): 0.99 | Absorption at 490 nm ([2]; 80° C., pH 5, 3 H): 1.71 | Absorption at 425 nm ([2]; 80° C., pH 5, 15 min): 2.00 | Absorption at 490 nm ([2]; 80° C., pH 5, 15 min): 3.38 | Absorption at 425 nm ([2]; 80° C., pH 5, T0: Start): 2.04 | Absorption at 490 nm ([2]; 80° C., pH 5, T0: Start): 3.48 | C0/Cmax ([3]; rat, IV 2 mg/kg, Mean): 10098 ng/mL | CL/CL_F (plasma clearance) ([3]; rat, IV 2 mg/kg, Mean): 16 ± 2 mL/min/kg | Clast ([3]; rat, IV 2 mg/kg, Mean): 3.15 ng/mL | MRT ([3]; rat, IV 2 mg/kg, Mean): 0.5 h | Vdss ([3]; rat, IV 2 mg/kg, Mean): 0.5 L/kg | t½ ([3]; rat, IV 2 mg/kg, Mean): 1.3 ± 0.6 h | Cmax ([3]; rat, IV 2 mg/kg, Mean): 18.6 µM | Vdss ([3]; rat, IV 2 mg/kg, individual rats 1-3): 0.5 L/kg | AUC0-t [3, 4]: 2330 ng · hr/mL and 1818 ng · hr/mL and 2055 ng · hr/mL and 4297 nM · hr and 3352 nM · hr and 3790 nM · hr | AUCinf [3, 4]: 2336 ng · hr/mL and 1822 ng · hr/mL and 2063 ng · hr/mL and 4308 nM · hr and 3360 nM · hr and 3804 nM · hr | C0/Cmax [3, 4]: 9019 ng/mL and 10685 ng/mL and 10589 ng/mL | CL/CL_F [3, 4]: 14 mL/min/kg and 18 mL/min/kg and 16 mL/min/kg | Clast [3, 4]: 3.26 ng/mL and 3.45 ng/mL and 2.73 ng/mL | MRT [3, 4]: 0.5 h (2×) and 0.4 h | Tlast [3, 4]: 8 h (2×) and 6 h | t½ [3, 4]: 1.3 h and 0.8 h and 1.9 h | Cmax [3, 4]: 16.6 µM and 19.7 µM and 19.5 µM | C0/Cmax ([3]; rat, PO 2 mg/kg, Mean): 4.46 ng/mL | Clast ([3]; rat, PO 2 mg/kg, Mean): 3.28 ng/mL | Bioavailability (%) Using AUC0-t ([3]; rat, PO 2 mg/kg, Mean, 2 mg/kg): 0.3% | Bioavailability (%) Using AUC0-t ([3]; rat, PO 2 mg/kg, Mean, listed as atrorosin, 2 mg/kg): 0.3% | Cmax ([3]; rat, PO 2 mg/kg, Mean): 0.0082 µM | Tmax ([3]; rat, PO 2 mg/kg, Median): 1 h | Tlast ([3]; rat, PO 2 mg/kg, individual rats 4-6): 2 h | AUC0-t [3, 5]: 6.35 ng · hr/mL and 7.6 ng · hr/mL and 5.76 ng · hr/mL and 11.7 nM · hr and 13.9 nM · hr and 10.6 nM · hr | Bioavailability (%) Using AUC0-t [3, 5]: 0.3% (2×) and 0.4% | C0/Cmax [3, 5]: 4.35 ng/mL and 5.35 ng/mL and 3.68 ng/mL | Clast [3, 5]: 2.6 ng/mL and 2.88 ng/mL | Tmax [3, 5]: 2 h and 1 h and 0.25 h | Cmax [3, 5]: 0.00803 µM and 0.0099 µM and 0.00679 µM | Clast ([3]; rat, in vivo, po, 2 mg/kg): 4.35 ng/mL | safety when ingested / adverse effects on rats (in words) ([3]; rats, 2 mg/kg IV or PO, 2 mg/kg): safe when ingested; also recorded: nor does it have any adverse effects on rats
